Several values for one entry are separate records, joined by “and”; a condition that tells them apart may be missing. Identical values can stand only once.

The target in one data set is hERG potassium channel (Homo sapiens (Human), UniProt Q12809). The data set can be described thus: In vitro hERG assay, whole-cell patch clamp in HEK-293 cells. It is filed as cell-based. To be noted: HEK-293 cells stably expressing hERG, room temperature. How it is done:
b. […] The working solutions of the test compounds were ultrasonically treated for 20 min.
The cell suspension was gently pipetted to separate the aggregated cells.
Under an inverted microscope, recording electrodes were controlled by a glass electrode micromanipulator (micromanipulation) to contact with the cell. […] After forming the GΩ seal, a rapid capacitance compensation was given.
Negative control and test compounds flowed through the recording chamber in an ascending order of concentration by gravity perfusion to quickly act on the cells. During the recording, the extracellular fluid was continuously circulated by a vacuum pump. […] Each concentration was allowed to act for 5 min or until the current was stabilized. All experiments were performed at room temperature.
[formula] Basic statistics were calculated for each concentration, including mean, standard deviation (SD), standard error (SE), and replicates (n). The dose-dependent curve was fitted with the following equation and the half maximal inhibitory concentration (IC50) of the test compounds was calculated:
Curve fitting and calculation of IC50 were performed by GraphPad Prism 5.0 software. 5. Experimental Results

The test system of data set [1] is MPTP+APO-induced climbing behavior in male mice. The data set can be described thus: MPTP+APO-induced climbing behavior in male mice (DA motor deterioration model). Format: in vivo. To be noted: observation in words. As for the experimental part: 1.2 Effect on MPTP+APO-induced climbing behavior in male mice (DA motor deterioration model) Animals were injected with different doses of MPTP intraperitoneally every morning for 5 consecutive days. […] After the subcutaneous injection, animals were immediately placed into a climbing cage (self-made, a cylindrical cage with the diameter of 13 cm and the height of 15 cm, made of a stainless steel wire mesh with the diameter of about 0.1 cm, the bottom of which is a semitransparent polyethylene plate, and the cage cover of which is a stainless steel cage cover), and the behaviors of animals at minutes 10-11, 20-21 and 30-31 after the APO injection was observed and scored.
Scoring criteria: four feet on the floor scored 0; two forepaws on the cage scored 1; and four feet on the cage scored 2.

Data set [2] can be described thus: Investigation of sedation side effects (autonomic activity, movement distance). It is filed as in vivo, mice. The note with it: mouse, in vivo, ip; C57BL/6j mice, intraperitoneal, 45 min after administration. How it is done:
(§1) 1.3 Investigation of Sedation Side Effects (Anti-Sedation Model)
(§2) According to different doses of each group, solutions at different concentrations were separately formulated for intraperitoneal injection, with the final administration volume of 10 mL/kg.
(§3) The movement at 0-20 min was recorded on video, and the movement distance in 20 min was analyzed by Top Scan 3.00 software. The inhibition rate of each group relative to the blank group after the administration were calculated, and the sedation effects of the compounds were comprehensively evaluated in combination with a statistical conclusion.

Another data set deals with C57BL/6j mice. The description is as above. It is filed as in vivo. The note with it: sedation ED50 / PDP efficacy ED50. As for the experimental part:
as §1, §2, §3

The subject of data set [3] is DOI-induced head shaking behavior of mice. Nature of the data set: DOI-induced head shaking (head thrust) test in mice. It is filed as in vivo. To be noted: Mus musculus, intragastric, DOI 1 mg/kg i.p., 0-20 min, read-out: ED50 for inhibiting the DOI-induced head shaking behavior.
In data set [4] the test system is MK-801-induced high activity behavior of mice. Nature of the data set: Dizocilpine (MK-801)-induced high activity test in mice. It is filed as in vivo. To be noted: Mus musculus, 1 h, intragastric, MK-801 0.3 mg/kg i.p., 60 min, read-out: ED50 for inhibiting the MK-801-induced high activity behavior.
For data set [5], the system named is DOI-induced PPI impairment in rats. Nature of the data set: DOI-induced PPI impairment test in rats (intervention test). It is filed as in vivo. The note with it: DOI 0.5 mg/kg. How it is done: 3. DOI ((f)-1-(2,5-dimethoxy-4-iodophenyl)-2-aminopropane hydrochloride or (f)-2,5-dimethoxy-4-iodoamphetamine hydrochloride) induced PPI impairment effect test in rats
30 min after the intragastric administration of a drug (or a vehicle) and 30 min after the subcutaneous injection of DOI at 0.5 mg/kg at the neck, namely 60 min after the intragastric administration, the rats were placed into a startle reflex test box for testing.
The test was performed according to literature and preliminary experiments, and the specific process was as follows: first an adaptation period of 5 min was given (62 dB background sound), and 5 separate startle reflex stimuli were given after the adaptation period (blockl, results not included in the analysis to reduce the initial response of the animals to a plateau level), followed by 4 different types of tests (block2) presented in a pseudo-random manner, namely: 1) startle reflex stimulus alone (pulse-alone, 120 dB, lasting 20 ms); 2) prepulse stimulus alone 13 dB above the background sound (prepulse-alone, 75 dB, lasting 20 ms); 3) prepulse stimulus in combination with startle reflex stimulus, each lasting 20 ms, with an interval of 100 ms; and 4) no stimulus in which only the background sound was given (no stimulus). Each trial was performed 5 times, with an average interval of 20 s (10-30 s) between trials.
The response amplitude of the startle reflex stimulus alone or the prepulse stimulus in combination with startle reflex stimulus was expressed as the AVG (instrument-specific unit) value, which indirectly reflects the size of the flinching response of the rat body. Evaluation index: PPI %=(1−response amplitude of prepulse stimulus in combination with startle reflex stimulus/response amplitude of startle reflex stimulus alone)×100. The higher the value is, the greater the degree of the inhibition is.

A further data set has as its target 5-HT2C receptor (Rattus norvegicus (Rat), UniProt P08909). To be noted: read-out: 5-HT2C (Ki value); rat cortex membrane, 3H-Mesulergine.

Sequence of 5-HT2C receptor (P08909 33-460): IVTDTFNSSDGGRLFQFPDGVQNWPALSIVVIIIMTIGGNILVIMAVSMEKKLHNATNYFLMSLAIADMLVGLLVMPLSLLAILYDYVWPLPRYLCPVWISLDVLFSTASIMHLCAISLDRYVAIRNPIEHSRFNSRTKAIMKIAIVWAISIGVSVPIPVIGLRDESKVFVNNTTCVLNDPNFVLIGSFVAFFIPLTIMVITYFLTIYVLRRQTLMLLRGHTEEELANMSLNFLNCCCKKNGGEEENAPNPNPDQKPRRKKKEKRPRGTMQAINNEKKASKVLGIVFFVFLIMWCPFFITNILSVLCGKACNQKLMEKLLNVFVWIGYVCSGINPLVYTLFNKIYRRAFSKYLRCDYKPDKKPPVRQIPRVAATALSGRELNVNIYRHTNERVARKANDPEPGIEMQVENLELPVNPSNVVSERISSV
Sequence of hERG potassium channel (Q12809 whole entry): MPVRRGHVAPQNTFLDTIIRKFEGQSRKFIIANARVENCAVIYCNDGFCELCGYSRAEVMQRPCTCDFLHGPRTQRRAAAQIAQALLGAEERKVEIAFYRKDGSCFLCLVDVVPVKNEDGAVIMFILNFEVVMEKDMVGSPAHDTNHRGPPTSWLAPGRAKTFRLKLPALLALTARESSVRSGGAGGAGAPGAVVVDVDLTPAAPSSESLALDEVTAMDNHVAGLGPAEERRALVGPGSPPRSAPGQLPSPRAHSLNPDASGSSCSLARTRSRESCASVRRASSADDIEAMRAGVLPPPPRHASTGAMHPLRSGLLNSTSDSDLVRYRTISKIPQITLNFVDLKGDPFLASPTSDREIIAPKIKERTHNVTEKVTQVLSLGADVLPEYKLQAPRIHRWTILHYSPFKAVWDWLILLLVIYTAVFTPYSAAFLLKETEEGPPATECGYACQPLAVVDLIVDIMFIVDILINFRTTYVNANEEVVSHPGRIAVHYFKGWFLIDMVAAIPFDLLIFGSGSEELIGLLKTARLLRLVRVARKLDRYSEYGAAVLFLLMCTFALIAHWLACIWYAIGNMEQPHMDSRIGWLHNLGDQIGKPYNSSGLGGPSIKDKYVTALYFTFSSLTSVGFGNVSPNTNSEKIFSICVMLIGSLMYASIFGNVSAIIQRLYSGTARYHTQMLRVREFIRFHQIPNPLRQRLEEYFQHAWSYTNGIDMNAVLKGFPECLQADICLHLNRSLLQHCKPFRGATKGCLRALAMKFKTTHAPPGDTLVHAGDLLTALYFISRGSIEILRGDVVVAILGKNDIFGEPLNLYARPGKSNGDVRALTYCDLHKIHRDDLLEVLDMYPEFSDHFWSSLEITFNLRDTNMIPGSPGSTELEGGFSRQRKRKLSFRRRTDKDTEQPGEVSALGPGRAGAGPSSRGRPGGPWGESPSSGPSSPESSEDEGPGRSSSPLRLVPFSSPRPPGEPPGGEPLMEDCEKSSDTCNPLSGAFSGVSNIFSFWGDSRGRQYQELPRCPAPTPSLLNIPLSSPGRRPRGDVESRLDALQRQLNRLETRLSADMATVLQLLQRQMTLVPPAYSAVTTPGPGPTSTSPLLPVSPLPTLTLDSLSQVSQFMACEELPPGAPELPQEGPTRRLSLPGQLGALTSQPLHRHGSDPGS
Procedure for 5-HT2C receptor: 2) Preparation of 5-HT2C Membrane
The rat cortex was taken out of a refrigerator at −80° C. and thawed spontaneously. The solution A was added, and the mixture was homogenized for 3-4 s at 4th gear for a total of 4 times and centrifuged at 50000 g for 25 min at 4° C. The supernatant was discarded, and the solution A was added into the precipitate. The mixture was mixed well using a vortex mixer and centrifuged at 50000 g for 25 min at 4° C. (repeated twice). The supernatant was discarded after the centrifugation, and the precipitate was stored at −80° C. for later use.
2) Competitive 5-HT2C Receptor Binding Assay
Step 1: the prepared membrane was suspended in the homogenate B to obtain a 210 mg/mL membrane suspension for later use.
Step 2: 100 μL of the membrane suspension was added into each reaction tube.
Step 3: 100 μL of the solution B was added into a total binding tube (TB), 100 μL of Ketanserin (final concentration: 1.0×10^−5 M) was added into a non-specific binding tube (NB), and 100 μL of test compound was added into each compound binding tube (CB).
Step 4: 10 μL of radioligand ^3H-Mesulergine was added into each reaction tube to reach a final concentration of 3 nM.
Step 5: each reaction tube was incubated at 37° C. for 25 min. After the reaction was completed, the binding ligands were rapidly filtered under reduced pressure, wherein the Whatman test paper GF/C was washed with 0.5% PEI solution 1 h in advance. The filter membrane was fully washed with cold Tris buffer solution, taken out and put into a 4 mL scintillation disc, which was then added with 1 mL toluene scintillation solution and shaken for mixing well.
Step 6: the scintillation disc was put into a liquid scintillation counter for counting.

One may read the IC50 as the concentration needed to halve the response being measured. The low end stands for higher potency, the high end for lower potency. Broadly, the ED50 is the dose at which the effect has come halfway, by size or by number of responders. In general, Ki refers to the dissociation constant of the complex between target and ligand, obtained from inhibition or displacement. On hERG potassium channel, `CC(C)COc1ccc(CN2Cc3ccc(F)cc3CN(C3CCN(C)CC3)C2=O)cc1` [NH-K-A19005, 8-fluoro-2-(1-methylpiperidin-4-yl)-4-[[4-(2-methylpropoxy)phenyl]methyl]-1,5-dihydro-2,4-benzo diazepine-3-one] showed an IC50 of 3170 nM. The “motor deterioration (DA mechanism of action)” value in data set [1] was “no motor deterioration is observed”. In addition, the median effective dose (ED50) at 45 min in data set [2] amounted to 20 mg/kg. In addition, the “Ratio of sedation ED50 to PDP efficacy ED50” value in the data set with C57BL/6j mice came out at 10.8. Besides, the values for the 50% effective dose (ED50) in data set [3] and in data set [4] were 0.15 mg/kg and 1.01 mg/kg, respectively. Moreover, in data set [5] (3 mg/kg, P<0.05), the “reversal of DOI-induced PPI impairment” value is reported as “significantly reverse”. Moreover, the “PPI %, MEAN” value in data set [5] (1 mg/kg intragastric) is reported as 40.15%; in data set [5] (3 mg/kg intragastric), 42.95%; in data set [5] (10 mg/kg intragastric), 52.40%. In addition, the “PPI %, individual animal” value was 55.27% and 13.13% and 49.29% and 40.22% and 11.24% and 71.74% in data set [5] (1 mg/kg intragastric); 36.23% and 53.57% and 36.93% and 47.37% and 45.54% and 61.94% and 38.90% and 23.16% in data set [5] (3 mg/kg intragastric); 86.67% and 28.57% and 78.84% and 65.78% and 63.08% and 0.38% and 52.03% and 43.86% in data set [5] (10 mg/kg intragastric). Moreover, the Ki on 5-HT2C receptor was 3.39 nM.

The values above are taken from patent US12559471B2, “1,5-dihydro-2,4-benzodiazepine-3-one derivative and application thereof” (JIANGSU NHWA PHARMACEUTICAL CO., LTD, priority 2020, dated 2026).
